Reference: the Deep4Chem optical property database
Values joined by “and” are separate entries in the source; they are usually repeats but may differ in a detail not shown here. Equal values may be shown once.

Assay: solvent given as SMILES
[1] = in c1cc(-c2cccc(-n3c4ccccc4c4ccccc43)c2)cc(-n2c3ccccc3c3ccccc32)c1
[2] = in c1cc(-n2c3ccccc3c3ccccc32)cc(-n2c3ccccc3c3ccccc32)c1

SMILES: COc1ccc(-c2cc3c(o2)=CC2=Cc4cc5oc(-c6ccc(OC)cc6)cc5n4[B-](F)(F)[N+]=32)cc1
- emission maximum (in ClC(Cl)Cl): 683 nm

SMILES: O=c1c2ccccc2n2c3ccccc3c(=O)c3cc(-c4ccccc4)cc1c32
- emission maximum (in CC#N): 475 nm
- emission maximum (in CCCCCC): 447 nm
- emission maximum (in CCCCOCCCC): 454 nm
- emission maximum (in CCOC(C)=O): 464 nm
- emission maximum (in CN(C)C=O): 477 nm
- emission maximum (in Cc1ccccc1): 464.98 nm
- emission maximum [1]: 472 nm
- emission maximum [2]: 472 nm

SMILES: CC(=O)O[B-]1(OC(C)=O)OC(/C=C/c2cccc3ccccc23)=CC(/C=C/c2cccc3ccccc23)=[O+]1
- emission maximum (in C1CCOC1): 539 nm
- emission maximum (in CC#N): 569 nm
- emission maximum (in CC(C)=O): 553 nm
- emission maximum (in CS(C)=O): 574 nm
- emission maximum (in Cc1ccccc1): 529 nm
- emission maximum (in ClC(Cl)Cl): 551 nm
- emission maximum (in ClCCl): 554 nm

SMILES: O=S(=O)([O-])c1cccc2c(O)cccc12
- emission maximum (in O): 426 nm

SMILES: COC(=O)c1c(C(=O)OC)c2ccc(-c3ccccc3)nn2c1C
- emission maximum (in CCCCCC): 471 nm

SMILES: ClP1(Cl)=NP(Cl)(Cl)=NP(Cl)(Oc2ccc3ccc4cccc5ccc2c3c45)=N1 (stereo not drawn)
- emission maximum (in ClCCl): 417 nm

SMILES: CC1=CC(/C=C/c2ccc(OCCCN=[N+]=[N-])cc2)=[N+]2C1=C(c1ccccc1)c1c(C)cc(C)n1[B-]2(F)F
- emission maximum (in CO): 578 nm

SMILES: C(=C\c1nc2ccccc2o1)/c1ccccc1
- emission maximum (in C1CCCCC1): 380 nm
- emission maximum (in CO): 380 nm

SMILES: Cc1ccc(N(c2ccc(C)cc2)c2c3ccccc3c(N(c3ccc(C)cc3)c3ccc(C)cc3)c3ccccc23)cc1
- emission maximum (in Cc1ccccc1): 533 nm

SMILES: CC[Si](CC)(CC)Oc1cccc(O[Si](CC)(CC)CC)c1-c1c2ccccc2c(-c2c(O[Si](CC)(CC)CC)cccc2O[Si](CC)(CC)CC)c2ccccc12
- emission maximum (in C1CCCCC1): 432 nm

SMILES: CC(C)(C)c1ccc2c(c1)B1c3cc(C(C)(C)C)ccc3Oc3cc(N4c5ccccc5C(C)(C)c5ccccc54)cc(c31)O2
- emission maximum (in Cc1ccccc1): 458 nm

SMILES: Nc1ccc(C#Cc2ccc3ccc4ccc(C#Cc5ccc(NS(=O)(=O)c6ccc([N+](=O)[O-])cc6[N+](=O)[O-])cc5)c5ccc2c3c45)cc1
- emission maximum (in CO): 552 nm

SMILES: Cc1cc(C)c2nc3c(=O)[nH]c(=O)[nH]c3nc2c1
- emission maximum (in CC#N): 461 nm

SMILES: CC(C)(C)c1ccc(-c2sc3c(-c4ccc(C(C)(C)C)cc4)c4n(c3c2-c2ccc(C(C)(C)C)cc2)[B-](F)(F)[N+]2=Cc3c(-c5ccc(C(C)(C)C)cc5)c5sc(-c6ccc(C(C)(C)C)cc6)c(-c6ccc(C(C)(C)C)cc6)c5n3[B-](F)(F)[N+]2=C4)cc1
- emission maximum (in CC#N): 627 nm
- emission maximum (in CCCCCC): 626 nm
- emission maximum (in CN(C)C=O): 636 nm
- emission maximum (in Cc1ccccc1): 632 nm
- emission maximum (in ClCCl): 631 nm

SMILES: CCCCCCN(CCCCCC)c1ccc(C#Cc2ccc([N+](=O)[O-])cc2)cc1
- emission maximum (in CO): 630 nm
- emission maximum (in ClCCl): 618 nm

SMILES: FC(F)(F)C(F)(F)C(F)(F)c1nc2c(-c3ccsc3)cc3c4cc(-c5ccsc5)c5nc(C(F)(F)C(F)(F)C(F)(F)F)nc6c(-c7ccsc7)cc(c7cc(-c8ccsc8)c(n1)c2c37)c4c56
- emission maximum (in C1CCOC1): 574 nm

SMILES: COc1ccc(C(=O)/C=C/c2ccc(N(C)C)cc2)cc1OC
- emission maximum (in C1CCOC1): 500 nm
- emission maximum (in CC#N): 525 nm
- emission maximum (in CC(=O)O): 513 nm
- emission maximum (in CC(C)=O): 511 nm
- emission maximum (in CCO): 533 nm
- emission maximum (in CN(C)C=O): 523 nm
- emission maximum (in CO): 535 nm
- emission maximum (in Cc1ccccc1): 468 nm
- emission maximum (in ClC(Cl)Cl): 507 nm
- emission maximum (in c1ccccc1): 470 nm

SMILES: CN(C)c1ccc(/C=C/c2ccnc(/C=C/c3ccc(N(C)C)cc3)n2)cc1
- emission maximum (in C1CCOC1): 484 nm
- emission maximum (in CC#N): 513 nm
- emission maximum (in CC(C)=O): 523 nm
- emission maximum (in CCCCCCC): 433 nm
- emission maximum (in CS(C)=O): 527 nm
- emission maximum (in Cc1ccccc1): 455 nm
- emission maximum (in ClCCl): 493 nm

SMILES: O=Cc1ccc(C#CC(C#Cc2ccc(C=O)o2)=Cc2ccc(C=C(C#Cc3ccc(C=O)o3)C#Cc3ccc(C=O)o3)cc2)o1
- emission maximum (in ClC(Cl)Cl): 518 nm

SMILES: COC(=O)C(NC(=O)OC(C)(C)C)c1ccc2oc(-c3cc(OC)c(OC)cc3OC)nc2c1 (stereo not drawn)
- emission maximum (in CC1CCCCC1): 357 nm
- emission maximum (in CC#N): 383 nm
- emission maximum (in CO): 389 nm

SMILES: Cc1cc2ccccc2c2[nH]c3ccccc3c12
- emission maximum (in ClCCl): 360 nm

SMILES: O=C(c1ccc(N2c3ccccc3Oc3ccccc32)cc1)c1ccc(N2c3ccccc3Oc3ccccc32)cc1
- emission maximum (in Cc1ccccc1): 509 nm
- emission maximum [2]: 538 nm

SMILES: O=C([O-])c1ccccc1-c1c2cc(Br)c(=O)c(Br)c-2oc2c(Br)c([O-])c(Br)cc12
- emission maximum (in CC(C)O): 551 nm
- emission maximum (in CCO): 550 nm
- emission maximum (in CO): 542 nm
- emission maximum (in O): 538 nm

SMILES: CCCCCCC1(CCCCCC)c2cc(-c3nc(-c4ccc5c(c4)C(CCCCCC)(CCCCCC)c4cc(N6c7ccccc7Oc7ccccc76)ccc4-5)nc(-c4ccc5c(c4)C(CCCCCC)(CCCCCC)c4cc(N6c7ccccc7Oc7ccccc76)ccc4-5)n3)ccc2-c2ccc(N3c4ccccc4Oc4ccccc43)cc21
- emission maximum (in C1CCOC1): 616 nm
- emission maximum (in CCCCCC): 485 nm
- emission maximum (in Cc1ccccc1): 525 nm
- emission maximum (in ClCCl): 621 nm

SMILES: Cc1ccc(C2=C3C=CC(c4ccccc4)=[N+]3[B-](F)(F)n3c(Cl)ccc32)cc1
- emission maximum (in C1CCCCC1): 553 nm
- emission maximum (in C1CCOC1): 555 nm
- emission maximum (in C1COCCO1): 554 nm
- emission maximum (in CCOC(C)=O): 551 nm
- emission maximum (in CO): 549 nm
- emission maximum (in Cc1ccccc1): 558 nm
- emission maximum (in ClC(Cl)Cl): 555 nm

SMILES: COc1cc(C#Cc2ccccc2)c(C#Cc2ccccc2)cc1OC
- emission maximum (in CC#N): 380 nm

SMILES: Oc1ccc(-c2cccs2)cc1-c1nc2ccccc2s1
- emission maximum (in CCO): 428 nm
- emission maximum (in ClCCl): 405 nm
- emission maximum (in O): 566 nm

SMILES: Cc1cc(C)c([B-]2(c3c(C)cc(C)cc3C)[O+]=P(c3ccccc3)(c3ccccc3)c3cc(-c4ccc(N(C)C)cc4)sc3-c3sc(-c4ccc(N(C)C)cc4)cc32)c(C)c1
- emission maximum (in C1CCOC1): 552 nm

SMILES: CC(C)(C)c1ccc(-c2nc(-c3ccc(-n4c5ccccc5c5c6oc7ccccc7c6ccc54)cc3)nc(-c3ccc(C(C)(C)C)cc3)n2)cc1
- emission maximum (in C1CCOC1): 415.2 nm

SMILES: COc1ccc(-c2cc(/C=C/c3ccc(N(c4ccccc4)c4ccccc4)cc3)c(C#N)c(N3CCCCC3)c2)cc1
- emission maximum (in CS(C)=O): 520 nm

SMILES: N#C/C(=C\c1ccc(C#N)cc1)c1nc(-c2ccccc2)cs1
- emission maximum (in CC#N): 501 nm
- emission maximum (in CCO): 500 nm
- emission maximum (in CN(C)C=O): 507 nm
- emission maximum (in Cc1ccccc1): 472 nm
- emission maximum (in ClCCl): 490 nm

SMILES: CC1(C)c2ccccc2N(c2ccccc2)c2ccc(-c3ccc(-c4ccc5c(c4)C(C)(C)c4ccccc4N5c4ccccc4)c4nsnc34)cc21
- emission maximum (in Cc1ccccc1): 596.02 nm
- emission maximum (in c1ccc2c(c1)c1ccccc1n2-c1ccc(-c2ccc(-n3c4ccccc4c4ccccc43)cc2)cc1): 588 nm

SMILES: c1ccc(C[n+]2cc3ccc4c[n+](Cc5ccccc5)cc5ccc(c2)c3c45)cc1
- emission maximum (in CC#N): 427 nm

SMILES: CCCCN1/C(=C\c2c(-c3ccc(N(C)C)cc3)c(=O)c2=O)C=Cc2ccccc21
- emission maximum (in C1CCCCC1): 428 nm
- emission maximum (in Cc1ccccc1): 435 nm
- emission maximum (in ClCCl): 585 nm

SMILES: N#Cc1ccc2c(c1)CCc1nc(-c3ccc([N+](=O)[O-])cc3)c3c(c1-2)CCc1cc(C#N)ccc1-3
- emission maximum (in C1CCOC1): 469 nm
- emission maximum (in CC#N): 525 nm
- emission maximum (in CCCCCC): 413 nm
- emission maximum (in CCOC(C)=O): 452 nm
- emission maximum (in CO): 475 nm
- emission maximum (in CS(C)=O): 510 nm
- emission maximum (in Cc1ccccc1): 443 nm
- emission maximum (in ClCCl): 475 nm

SMILES: CCn1c2ccccc2c2ccc(-c3ccc(OC)cc3)cc21
- emission maximum (in C1CCCCC1): 383 nm

SMILES: Cc1cc(C)c2c(c1)c1cc(C)cc(C)c1n2-c1ccc2c(c1)B(c1c(C(C)C)cc(C(C)C)cc1C(C)C)c1cc(-n3c4c(C)cc(C)cc4c4cc(C)cc(C)c43)ccc1N2c1ccccc1
- emission maximum (in C1CCOC1): 447.96 nm
- emission maximum (in CCOC(C)=O): 447.96 nm
- emission maximum (in Cc1ccccc1): 441.5 nm
- emission maximum (in ClCCl): 453.4 nm
- emission maximum [1]: 451 nm

SMILES: CN(C)c1ccc(/C=C/c2ccc([N+](=O)[O-])c(O)c2)cc1
- emission maximum (in C1CCCCC1): 529 nm
- emission maximum (in C1COCCO1): 633 nm
- emission maximum (in CCCCCCC): 523 nm
- emission maximum (in Cc1ccccc1): 605 nm

SMILES: CN(C)c1ccc2nc(-c3ccc(C(=O)O)cc3)sc2c1
- emission maximum (in C1CCCCC1): 426 nm
- emission maximum (in CC#N): 558 nm
- emission maximum (in CC(C)O): 493 nm
- emission maximum (in CO): 512 nm
- emission maximum (in CS(C)=O): 568 nm
- emission maximum (in ClC(Cl)Cl): 509 nm
- emission maximum (in c1ccccc1): 483 nm and 486 nm

SMILES: COc1ccc(C#Cc2ccccc2C#Cc2ccc(OC)cc2)cc1
- emission maximum (in CC#N): 380 nm

SMILES: O=S1(=O)C(c2cccs2)=C(c2cccs2)c2ccccc21
- emission maximum (in C1CCOC1): 432 nm

SMILES: Cc1cc(C2=Cc3cccc[n+]3[B-](F)(F)O2)ccc1N(C)C
- emission maximum (in ClC(Cl)Cl): 491 nm

SMILES: N#Cc1c(C#N)c2cc(Cl)ccc2c2ccc(Cl)cc12
- emission maximum (in ClC(Cl)Cl): 388 nm

SMILES: CCCCN1C(=O)c2c(Br)c(Br)c3c4c(Br)c(Br)c5c6c(c(Br)c(Br)c(c7c(Br)c(Br)c(c2c37)C1=O)c64)C(=O)N(CCCC)C5=O
- emission maximum (in ClC(Cl)Cl): 600 nm

SMILES: N#Cc1cc(-c2cc(C#N)c(-n3c4ccccc4c4ccccc43)cc2-n2c3ccccc3c3ccccc32)c(-n2c3ccccc3c3ccccc32)cc1-n1c2ccccc2c2ccccc21
- emission maximum (in Cc1ccccc1): 453 nm

SMILES: CCN(CC)c1ccc2c(c1)oc(=O)c1cnc3c(cnn3-c3ccccc3)c12
- emission maximum (in ClCCl): 441 nm

SMILES: N#Cc1c(-c2ccc(N(c3ccccc3)c3ccccc3)cc2)c(C#N)c(-c2ccc(N(c3ccccc3)c3ccccc3)cc2)c(C#N)c1-c1ccc(N(c2ccccc2)c2ccccc2)cc1
- emission maximum (in O=P(c1ccccc1)(c1ccccc1)c1ccccc1Oc1ccccc1P(=O)(c1ccccc1)c1ccccc1): 533 nm

SMILES: c1ccc(-n2c3ccccc3c3cc(-n4ccc5cc(-c6ccc7c(c6)C(c6ccccc6)(c6ccccc6)c6ccccc6-7)ccc54)ccc32)cc1
- emission maximum (in ClCCl): 378 nm

SMILES: C1=C(c2ccccc2)B(c2ccccc2)Nc2c1ccc1ccccc21
- emission maximum (in C1CCCCC1): 396 nm

SMILES: O=c1[nH]c(=O)c2nc3ccccc3nc2[nH]1
- emission maximum (in CC#N): 432 nm
